Series [1] deals with MCF-7 cells. Nature of the series: Inhibition of [14C]-D-glucose transport (hexose flux) in MCF-7 cells. The series is classed as cell-based, human. The conditions noted are these: for Ki: [14C]-D-glucose. As for the experimental part:
(§1) Both MCF-7 and MDA-MB-231 cells (Gifts from Dr. David Murray, Cross Cancer Institute, Edmonton, Canada) were grown in a 37° C., 5% CO2 incubator, in Gibco® DMEM-F12 supplemented with 15 mM HEPES, L-glutamine, 10% fetal bovine serum and 1% penicillin/streptomycin with media renewal every 2 to 3 days. For cell flux studies, cells were grown to confluence in 12-well plates with media renewal every two days. Two hours before performing the flux experiment, the media was removed, and the cells washed twice with phosphate buffered saline solution (PBS). Glucose-free Krebs-Ringer solution was added to the wells (120 mM NaCl, 25 mM NaHCO3, 4 mM KCl, 1.2 mM KH2PO4, 2.5 mM MgSO4, 70 uM CaCl2, pH 7.4) to deprive the cells of nutrients and to set up a zero-trans experiment. After two hours, cells were removed from the incubator, and the respective experiments were performed. Radioactive “Hot” flux solutions were made up using the Krebs-Ringer solution previously mentioned and radiolabelled [^14C]-D-glucose (Amersham), [^14C]-D-fructose (Moravek Biochemicals), or [^14C]6FDF (proprietary) at a specific activity of approximately 1 μCi/ml. For determining background levels of radioactivity, a sodium reduced Krebs solution was made (70 mM NaCl, 25 mM NaHCO3, 4 mM KCl, 1.2 mM KH2PO4, 2.5 mM MgSO4, 70 μM CaCl2, pH 7.4) with the addition of either 100 mM D-glucose or 100 mM D-fructose to outcompete the binding sites of the specific GLUT transporters under examination. After applying the test flux solution, incubations lasted for 25 minutes, where the cells were then rinsed twice with ice-cold Krebs-Ringer to stop the transport, and then lysed using 500 μl 5% trichloracetic acid and left to sit on a shaker bed overnight. […] The vials were then placed in a Beckman™ LS 6500 multi-purpose liquid scintillation counter to be quantified. […]
(§2) All uptake values were corrected for their respective adhering extracellular substrate, and Ki values were determined using non-linear regression in GraphPad Prism™ 5 (GraphPad Software, Inc., La Jolla, Calif.). […]

Series [2] concerns MDA-MB-231 cells. Description: Inhibition of [14C]-D-glucose transport (hexose flux) in MDA-MB-231 cells. The conditions noted are these: for Ki: [14C]-D-glucose. The format is cell-based, human. How it is done:
as §1, §2

The subject of series [3] is MDA-MB-231 cells. Description: Inhibition of [14C]-D-fructose transport (hexose flux) in MDA-MB-231 cells. The format is cell-based, human. How it is done:
(§3) Both MCF-7 and MDA-MB-231 cells (Gifts from Dr. David Murray, Cross Cancer Institute, Edmonton, Canada) were grown in a 37° C., 5% CO2 incubator, in Gibco® DMEM-F12 supplemented with 15 mM HEPES, L-glutamine, 10% fetal bovine serum and 1% penicillin/streptomycin with media renewal every 2 to 3 days. For cell flux studies, cells were grown to confluence in 12-well plates with media renewal every two days. Two hours before performing the flux experiment, the media was removed, and the cells washed twice with phosphate buffered saline solution (PBS). Glucose-free Krebs-Ringer solution was added to the wells (120 mM NaCl, 25 mM NaHCO3, 4 mM KCl, 1.2 mM KH2PO4, 2.5 mM MgSO4, 70 uM CaCl2, pH 7.4) to deprive the cells of nutrients and to set up a zero-trans experiment. After two hours, cells were removed from the incubator, and the respective experiments were performed. Radioactive “Hot” flux solutions were made up using the Krebs-Ringer solution previously mentioned and radiolabelled [^14C]-D-glucose (Amersham), [^14C]-D-fructose (Moravek Biochemicals), or [^14C]6FDF (proprietary) at a specific activity of approximately 1 μCi/ml. For determining background levels of radioactivity, a sodium reduced Krebs solution was made (70 mM NaCl, 25 mM NaHCO3, 4 mM KCl, 1.2 mM KH2PO4, 2.5 mM MgSO4, 70 μM CaCl2, pH 7.4) with the addition of either 100 mM D-glucose or 100 mM D-fructose to outcompete the binding sites of the specific GLUT transporters under examination. […] Three 150 μl samples from each well were placed into scintillation counter vials, and 4 ml of ScintiSafe™ liquid scintillation fluid (Fisher) was added. The vials were then placed in a Beckman™ LS 6500 multi-purpose liquid scintillation counter to be quantified. All counts were then normalized to standards and corrected for background accumulation of isotope.
(§4) All uptake values were corrected for their respective adhering extracellular substrate, and Ki values were determined using non-linear regression in GraphPad Prism™ 5 (GraphPad Software, Inc., La Jolla, Calif.). ANOVA analysis was also performed in GraphPad Prism™ 5.

For series [4], the system named is MCF-7 cells. Nature of the series: Inhibition of [14C]-D-fructose transport (hexose flux) in MCF-7 cells. The series is classed as cell-based, human. How it is done: as §3, §4
The nature of another series: Storage stability. The format is physicochemical. The conditions noted are these: prolonged storage.
Series [5] concerns MCF-7 cells. Description: [14C]-6-deoxy-6-fluoro-D-fructose uptake in MCF-7 cells. The format is cell-based, human. The conditions noted are these: for uptake time course: 90 minute incubation, MCF-7, corrected for non-mediated hexose uptake. How it is done: as §3, §4
The subject of series [6] is MDA-MB-231 cells. Description: [14C]-6-deoxy-6-fluoro-D-fructose uptake in MDA-MB-231 cells. The series is classed as cell-based, human. The conditions noted are these: 90 minute incubation, MDA-MB-231, corrected for non-mediated hexose uptake. How it is done:
Both MCF-7 and MDA-MB-231 cells (Gifts from Dr. David Murray, Cross Cancer Institute, Edmonton, Canada) were grown in a 37° C., 5% CO2 incubator, in Gibco® DMEM-F12 supplemented with 15 mM HEPES, L-glutamine, 10% fetal bovine serum and 1% penicillin/streptomycin with media renewal every 2 to 3 days. For cell flux studies, cells were grown to confluence in 12-well plates with media renewal every two days. Two hours before performing the flux experiment, the media was removed, and the cells washed twice with phosphate buffered saline solution (PBS). […] For determining background levels of radioactivity, a sodium reduced Krebs solution was made (70 mM NaCl, 25 mM NaHCO3, 4 mM KCl, 1.2 mM KH2PO4, 2.5 mM MgSO4, 70 μM CaCl2, pH 7.4) with the addition of either 100 mM D-glucose or 100 mM D-fructose to outcompete the binding sites of the specific GLUT transporters under examination. […] The vials were then placed in a Beckman™ LS 6500 multi-purpose liquid scintillation counter to be quantified. […]
as §2

The mark [7] stands for this setting: increasing concentrations, MCF-7.
Where [8] appears, read: increasing concentrations, MDA-MB-231.
[9] abbreviates: listed as [^14C]-labelled 6-deoxy-6-fluoro-D-fructose.

Structures are written as SMILES.

One may read the Ki as a measure of affinity in units of concentration, obtained from inhibition or displacement. On to `OCC1(O)O[C@H](CF)[C@@H](O)[C@@H]1O` (stereo partly drawn) [6-deoxy-6-fluoro-D-fructose], for which the Ki with MCF-7 cells [1] (25 minute incubation, MCF-7, n=3) is about 916 µM; in the series with MCF-7 cells [1] (MCF-7 (FIG. 7A)), about 916 µM; with MDA-MB-231 cells [2] (25 minute incubation, MDA-MB-231, n=3), 6210 ± 2860 µM; in the series on MDA-MB-231 cells [2] (MDA-MB-231 (FIG. 7B)), 6210 ± 2860 µM; with MDA-MB-231 cells [3] ([14C]-D-fructose, 25 minute incubation, MDA-MB-231, n=3) it was 330 ± 153 µM; in the series on MCF-7 cells [4] ([14C]-D-fructose, 25 minute incubation, MCF-7, n=3), 154 ± 54 µM. For the same compound, the “inhibition of [14C]-D-glucose transport, in words” value in the series with MCF-7 cells [1] (setting [7]) and with MDA-MB-231 cells [2] (setting [8]) was “dose dependent inhibition” in each case. The “inhibition of [14C]-D-fructose transport, in words” value in the series with MDA-MB-231 cells [3] (setting [8]) and in the series on MCF-7 cells [4] (setting [7]) was “dose dependent inhibition” in each case. The stability during storage result in “Storage stability” is “not stable during prolonged storage”.

Turning to `C=C1[C@@H](C)[C@H]2[C@H](Cc3ccccc3)NC(=O)[C@]23OC(=O)/C=C/[C@H](O)CCC[C@@H](C)C/C=C/[C@H]3[C@@H]1O` [CB, cytochalasin B, reference compound], the “effect on 6-deoxy-6-fluoro-D-fructose transport” value in the series with MCF-7 cells [5] (100 μM CB, [14C]-6-deoxy-6-fluoro-D-fructose, 60 minutes, MCF-7) is given as “no significant transport difference”. Also, the “share of total fructose flux inhibited (GLUT2-mediated)” value in the series with MDA-MB-231 cells [3] (100 μM CB, [14C]-D-fructose, 90 minute flux, MDA-MB-231) is on record as “approximately 30%”; with MCF-7 cells [4] (100 μM CB, [14C]-D-fructose, 90 minute flux, MCF-7), “about 12%”. The “effect on fructose transport” value in the series on MCF-7 cells [4] (100 μM CB, [14C]-D-fructose, 60 minutes, MCF-7) is listed as “no significant transport difference”.

With `O=C(CO)[C@@H](O)[C@H](O)[C@H](O)CF` [[^14C]-6-deoxy-6-fluoro-D-fructose], the uptake time course entry in the series with MDA-MB-231 cells [6] is listed as “Near linear uptake”; in the series on MDA-MB-231 cells [6] (setting [9]) it was “Near linear uptake over time”; with MCF-7 cells [5], “Near linear uptake”; in the series with MCF-7 cells [5] (setting [9]) it was “Near linear uptake over time”. Also, in the series on MCF-7 cells [5] (MCF-7, one hour incubation, 2-way ANOVA p=0.0028), the “increase in uptake compared to [14C]-D-fructose” value is recorded as “almost two-fold increase”.
